System: HEK293T cells carrying the ATF4 luciferase reporter
Test: ATF4-Luc assay, in vitro model of Vanishing Cell White Matter Disease (VWMD)
Assay type: cell-based
Conditions: Homo sapiens, HEK-293T, 1 μg/mL tunicamycin, 7 hours, One Glo luminescence
Method in brief: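 Stable HEK293T line with human ATF4 5′-UTR–firefly luciferase reporter treated with 1 μg/mL tunicamycin plus 200 nM compound for 7 h. Luminescence read; EC50 derived.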

Compound: O=C(COc1ccc(Cl)c(F)c1)NC12CC(NC(=O)c3ccc4c(c3)OC(F)(F)O4)(C1)C2 [Compound 234, N-{3-[2-(4-chloro-3-fluorophenoxy)acetamido]bicyclo[1.1.1]pentan-1-yl}-2,2-difluoro-2H-1,3-benzodioxole-5-carboxamide]
- EC50: < 50 nM

Compound: O=C(COc1ccc(Cl)c(F)c1)NC12CC(NC(=O)c3ccc(OC4COC4)nc3)(C1)C2 [Compound 237, N-{3-[2-(4-chloro-3-fluorophenoxy)acetamido]bicyclo[1.1.1]pentan-1-yl}-6-[(oxetan-3-yl)oxy]pyridine-3-carboxamide]
- EC50: 250 to 1000 nM

Compound: Cc1nc(C)c(C(=O)NC23CC(NC(=O)COc4ccc(Cl)c(F)c4)(C2)C3)s1 [Compound 238, N-{3-[2-(4-chloro-3-fluorophenoxy)acetamido]bicyclo[1.1.1]pentan-1-yl}-2,4-dimethyl-1,3-thiazole-5-carboxamide]
- EC50: 50 to 250 nM

Compound: O=C(COc1ccc(Cl)c(F)c1)NC12CC(NC(=O)c3ccc4c(c3)OCO4)(C1)C2 [Compound 239, N-{3-[2-(4-chloro-3-fluorophenoxy)acetamido]bicyclo[1.1.1]pentan-1-yl}-2H-1,3-benzodioxole-5-carboxamide]
- EC50: 50 to 250 nM

Compound: O=C(COc1ccc(Cl)c(F)c1)NC12CC(NC(=O)c3cccc4c3OCO4)(C1)C2 [Compound 240, N-{3-[2-(4-chloro-3-fluorophenoxy)acetamido]bicyclo[1.1.1]pentan-1-yl}-2H-1,3-benzodioxole-4-carboxamide]
- EC50: 1000 to 2000 nM

Compound: Cc1cc(C(=O)NC23CC(NC(=O)COc4ccc(Cl)c(F)c4)(C2)C3)n(C)n1 [Compound 241, N-{3-[2-(4-chloro-3-fluorophenoxy)acetamido]bicyclo[1.1.1]pentan-1-yl}-1,3-dimethyl-1H-pyrazole-5-carboxamide]
- EC50: < 50 nM

Compound: COCc1ccc(C(=O)NC23CC(NC(=O)COc4ccc(Cl)c(F)c4)(C2)C3)o1 [Compound 242, N-{3-[2-(4-chloro-3-fluorophenoxy)acetamido]bicyclo[1.1.1]pentan-1-yl}-5-(methoxymethyl)furan-2-carboxamide]
- EC50: 50 to 250 nM

Compound: O=C(COc1ccc(Cl)c(F)c1)NC12CC(NC(=O)c3coc4ccccc34)(C1)C2 [Compound 243, N-{3-[2-(4-chloro-3-fluorophenoxy)acetamido]bicyclo[1.1.1]pentan-1-yl}-1-benzofuran-3-carboxamide]
- EC50: 250 to 1000 nM

Compound: O=C(COc1ccc(Cl)c(F)c1)NC12CC(NC(=O)c3cc(C4CC4)no3)(C1)C2 [Compound 244, N-{3-[2-(4-chloro-3-fluorophenoxy)acetamido]bicyclo[1.1.1]pentan-1-yl}-3-cyclopropyl-1,2-oxazole-5-carboxamide]
- EC50: 50 to 250 nM

Compound: CC(C)c1nc(C(=O)NC23CC(NC(=O)COc4ccc(Cl)c(F)c4)(C2)C3)co1 [Compound 245, N-{3-[2-(4-chloro-3-fluorophenoxy)acetamido]bicyclo[1.1.1]pentan-1-yl}-2-(propan-2-yl)-1,3-oxazole-4-carboxamide]
- EC50: 250 to 1000 nM

Compound: Cn1cc(C(=O)NC23CC(NC(=O)COc4ccc(Cl)c(F)c4)(C2)C3)cn1 [Compound 246, N-{3-[2-(4-chloro-3-fluorophenoxy)acetamido]bicyclo[1.1.1]pentan-1-yl}-1-methyl-1H-pyrazole-4-carboxamide]
- EC50: 250 to 1000 nM

Compound: CCc1cc(C(=O)NC23CC(NC(=O)COc4ccc(Cl)c(F)c4)(C2)C3)no1 [Compound 247, N-{3-[2-(4-chloro-3-fluorophenoxy)acetamido]bicyclo[1.1.1]pentan-1-yl}-5-ethyl-1,2-oxazole-3-carboxamide]
- EC50: 250 to 1000 nM

Compound: O=C(COc1ccc(Cl)c(F)c1)NC12CC(NC(=O)c3coc(C4CC4)n3)(C1)C2 [Compound 248, N-{3-[2-(4-chloro-3-fluorophenoxy)acetamido]bicyclo[1.1.1]pentan-1-yl}-2-cyclopropyl-1,3-oxazole-4-carboxamide]
- EC50: 50 to 250 nM

Compound: Cc1nc(C(=O)NC23CC(NC(=O)COc4ccc(Cl)c(F)c4)(C2)C3)co1 [Compound 249, N-{3-[2-(4-chloro-3-fluorophenoxy)acetamido]bicyclo[1.1.1]pentan-1-yl}-2-methyl-1,3-oxazole-4-carboxamide]
- EC50: 50 to 250 nM

Compound: CCc1ccc(C(=O)NC23CC(NC(=O)COc4ccc(Cl)c(F)c4)(C2)C3)o1 [Compound 250, N-{3-[2-(4-chloro-3-fluorophenoxy)acetamido]bicyclo[1.1.1]pentan-1-yl}-5-ethylfuran-2-carboxamide]
- EC50: < 50 nM

Compound: CCc1nc(C(=O)NC23CC(NC(=O)COc4ccc(Cl)c(F)c4)(C2)C3)co1 [Compound 251, N-{3-[2-(4-chloro-3-fluorophenoxy)acetamido]bicyclo[1.1.1]pentan-1-yl}-2-ethyl-1,3-oxazole-4-carboxamide]
- EC50: 50 to 250 nM

Compound: CCn1cc(C(=O)NC23CC(NC(=O)COc4ccc(Cl)c(F)c4)(C2)C3)cn1 [Compound 252, N-{3-[2-(4-chloro-3-fluorophenoxy)acetamido]bicyclo[1.1.1]pentan-1-yl}-1-ethyl-1H-pyrazole-4-carboxamide]
- EC50: 250 to 1000 nM

Compound: COc1cc(C(=O)NC23CC(NC(=O)COc4ccc(Cl)c(F)c4)(C2)C3)on1 [Compound 253, N-{3-[2-(4-chloro-3-fluorophenoxy)acetamido]bicyclo[1.1.1]pentan-1-yl}-3-methoxy-1,2-oxazole-5-carboxamide]
- EC50: 50 to 250 nM

Compound: CCc1cc(C(=O)NC23CC(NC(=O)COc4ccc(Cl)c(F)c4)(C2)C3)n(C)n1 [Compound 254, N-{3-[2-(4-chloro-3-fluorophenoxy)acetamido]bicyclo[1.1.1]pentan-1-yl}-3-ethyl-1-methyl-1H-pyrazole-5-carboxamide]
- EC50: < 50 nM

Compound: CC(C)c1cc(C(=O)NC23CC(NC(=O)COc4ccc(Cl)c(F)c4)(C2)C3)no1 [Compound 255, N-{3-[2-(4-chloro-3-fluorophenoxy)acetamido]bicyclo[1.1.1]pentan-1-yl}-5-(propan-2-yl)-1,2-oxazole-3-carboxamide]
- EC50: 250 to 1000 nM

Compound: O=C(COc1ccc(Cl)c(F)c1)NC12CC(NC(=O)c3cc(C4CC4)on3)(C1)C2 [Compound 256, N-{3-[2-(4-chloro-3-fluorophenoxy)acetamido]bicyclo[1.1.1]pentan-1-yl}-5-cyclopropyl-1,2-oxazole-3-carboxamide]
- EC50: 250 to 1000 nM

Compound: Cc1ncc(C(=O)NC23CC(NC(=O)COc4ccc(Cl)c(F)c4)(C2)C3)o1 [Compound 257, N-{3-[2-(4-chloro-3-fluorophenoxy)acetamido]bicyclo[1.1.1]pentan-1-yl}-2-methyl-1,3-oxazole-5-carboxamide]
- EC50: 50 to 250 nM

Compound: O=C(COc1ccc(Cl)c(F)c1)NC12CC(NC(=O)c3cnc4ccccn34)(C1)C2 [Compound 258, N-{3-[2-(4-chloro-3-fluorophenoxy)acetamido]bicyclo[1.1.1]pentan-1-yl}imidazo[1,2-a]pyridine-3-carboxamide]
- EC50: 250 to 1000 nM

Compound: O=C(COc1ccc(Cl)c(F)c1)NC12CC(NC(=O)c3cc4n(n3)CCC4)(C1)C2 [Compound 259, N-{3-[2-(4-chloro-3-fluorophenoxy)acetamido]bicyclo[1.1.1]pentan-1-yl}-5,6-dihydro-4H-pyrrolo[1,2-b]pyrazole-2-carboxamide]
- EC50: 250 to 1000 nM

Compound: COCn1ccc(C(=O)NC23CC(NC(=O)COc4ccc(Cl)c(F)c4)(C2)C3)n1 [Compound 260, N-{3-[2-(4-chloro-3-fluorophenoxy)acetamido]bicyclo[1.1.1]pentan-1-yl}-1-(methoxymethyl)-1H-pyrazole-3-carboxamide]
- EC50: 250 to 1000 nM

Compound: O=C(COc1ccc(Cl)c(Cl)c1)NC12CC(NC(=O)c3ccncn3)(C1)C2 [Compound 261, N-{3-[2-(3,4-dichlorophenoxy)acetamido]bicyclo[1.1.1]pentan-1-yl}pyrimidine-4-carboxamide]
- EC50: 250 to 1000 nM

Compound: O=C(COc1ccc(Cl)c(F)c1)NC12CC(NC(=O)c3ccc(F)cn3)(C1)C2 [Compound 262, N-{3-[2-(4-chloro-3-fluorophenoxy)acetamido]bicyclo[1.1.1]pentan-1-yl}-5-fluoropyridine-2-carboxamide]
- EC50: 50 to 250 nM

Compound: O=C(COc1ccc(Cl)c(F)c1)NC12CC(NC(=O)c3cc(C(=O)NC4CC(F)(F)C4)ccn3)(C1)C2 [Compound 263, N^2-{3-[2-(4-chloro-3-fluorophenoxy)acetamido]bicyclo[1.1.1]pentan-1-yl}-N^4-(3,3-difluorocyclobutyl)pyridine-2,4-dicarboxamide]
- EC50: 250 to 1000 nM

Compound: O=C(COc1ccc(Cl)cc1)NC12CC(Nc3nnc(-c4ccc(Cl)cc4)o3)(C1)C2 [Compound 264, 2-(4-chlorophenoxy)-N-(3-{[5-(4-chlorophenyl)-1,3,4-oxadiazol-2-yl]amino}bicyclo[1.1.1]pentan-1-yl)acetamide]
- EC50: 250 to 1000 nM

Compound: O=C(COc1ccc(Cl)cc1)NC12CC(Nc3cc(-c4ccc(Cl)cc4)on3)(C1)C2 [Compound 265, 2-(4-chlorophenoxy)-N-(3-{[5-(4-chlorophenyl)-1,2-oxazol-3-yl]amino}bicyclo[1.1.1]pentan-1-yl)acetamide]
- EC50: < 50 nM

Compound: O=C(COc1ccc(Cl)c(F)c1)NC12CC(NC(=O)c3cnc(C4CC4)cn3)(C1)C2 [Compound 266, N-{3-[2-(4-chloro-3-fluorophenoxy)acetamido]bicyclo[1.1.1]pentan-1-yl}-5-cyclopropylpyrazine-2-carboxamide]
- EC50: 50 to 250 nM

Compound: O=C(COc1ccc(Cl)c(F)c1)NC12CC(NC(=O)c3ccc(-c4ccco4)cn3)(C1)C2 [Compound 267, N-{3-[2-(4-chloro-3-fluorophenoxy)acetamido]bicyclo[1.1.1]pentan-1-yl}-5-(furan-2-yl)pyridine-2-carboxamide]
- EC50: < 50 nM

Compound: Cc1cnc(C(=O)NC23CC(NC(=O)COc4ccc(Cl)c(F)c4)(C2)C3)nc1 [Compound 268, N-{3-[2-(4-chloro-3-fluorophenoxy)acetamido]bicyclo[1.1.1]pentan-1-yl}-5-methylpyrimidine-2-carboxamide]
- EC50: 50 to 250 nM

Compound: CCNc1ccc(C(=O)NC23CC(NC(=O)COc4ccc(Cl)c(F)c4)(C2)C3)nc1 [Compound 269, N-{3-[2-(4-chloro-3-fluorophenoxy)acetamido]bicyclo[1.1.1]pentan-1-yl}-5-(ethylamino)pyridine-2-carboxamide]
- EC50: 250 to 1000 nM

— US10913727B2, “Modulators of the integrated stress pathway” (Calico Life Sciences LLC, priority 2016, dated 2021)
